Measured values published in US8158628B2, “Sulfonylated 1,2,3,4-tetrahydropyrrolo[1,2-a]pyrazine compounds and their use as pharmaceuticals” (Gruenenthal GmbH, priority 2009, dated 2012).

Key:
B1R of the rat = target: T1, B1R of the rat (Rattus norvegicus, UniProt P97583); assay: FLIPR Ca2+ functional assay, B1R antagonism, rat B1R in CHO K1 cells; type: cell-based; details: test substance 10 μM; rB1R CHO K1 cells; agonist Des-Arg9 bradykinin at EC80; % of maximum achievable inhibition
T1 construct: expressed in transfected cells; host or cells: CHO K1 cells (Chinese hamster ovary), stably transfected
T1 sequence (P97583 1-337): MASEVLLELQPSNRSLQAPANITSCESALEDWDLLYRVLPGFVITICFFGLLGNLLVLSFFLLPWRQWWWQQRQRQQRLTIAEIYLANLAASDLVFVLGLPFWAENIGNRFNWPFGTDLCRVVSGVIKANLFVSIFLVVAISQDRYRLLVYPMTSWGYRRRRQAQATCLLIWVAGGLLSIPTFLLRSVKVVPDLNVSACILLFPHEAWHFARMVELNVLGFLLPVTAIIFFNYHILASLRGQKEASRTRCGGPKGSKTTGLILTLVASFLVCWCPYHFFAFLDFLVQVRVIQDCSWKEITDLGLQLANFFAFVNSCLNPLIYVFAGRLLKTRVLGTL
In short: (§1)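 IC50 values come from varied compound concentrations applied 10-20 min before an EC80 agonist challenge, with Des-Arg9 bradykinin for rat and Lys-Des-Arg9 bradykinin for human receptor. Ca2+ influx in Fluo-4-loaded CHO K1 transfectants was measured by FLIPR peak fluorescence. Data are % inhibition vs maximum, n=2-3, N>=2.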

human B1R = target: T2, human B1R (Homo sapiens, UniProt P46663); assay: FLIPR Ca2+ functional assay, B1R antagonism, human B1R in CHO K1 cells; type: cell-based; details: test substance 10 μM; hB1R CHO K1 cells; agonist Lys-Des-Arg9 bradykinin at EC80; % of maximum achievable inhibition
T2 construct: expressed in transfected cells; host or cells: CHO K1 cells (Chinese hamster ovary), stably transfected
T2 sequence (P46663 1-353): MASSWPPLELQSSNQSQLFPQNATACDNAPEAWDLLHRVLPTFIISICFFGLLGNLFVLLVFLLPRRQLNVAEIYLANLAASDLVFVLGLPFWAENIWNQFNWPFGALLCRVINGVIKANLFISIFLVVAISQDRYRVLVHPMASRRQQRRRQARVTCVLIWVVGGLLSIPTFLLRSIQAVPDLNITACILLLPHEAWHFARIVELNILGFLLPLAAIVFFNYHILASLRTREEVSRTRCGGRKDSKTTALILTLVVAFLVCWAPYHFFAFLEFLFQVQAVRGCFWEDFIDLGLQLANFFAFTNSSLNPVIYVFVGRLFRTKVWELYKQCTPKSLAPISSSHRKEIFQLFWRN
In short: as §1

SMILES | inhibition at 10 µM (B1R of the rat) | inhibition at 10 µM (human B1R)
Cc1ccc(S(=O)(=O)N2CCn3cccc3C2CC(=O)NC2CCc3cc(CN4CCCCC4)ccc3C2)cc1Cl (stereo not shown) [Example 50, 2-[2-[(3-Chloro-4-methyl-phenyl)sulfonyl]-1,2,3,4-tetrahydro-pyrrolo[1,2-a]pyrazin-1-yl]-N-[6-(piperidin-1-yl-methyl)-1,2,3,4-tetrahydro-naphthalen-2-yl]-acetamide] | 99.5% | 99.7%
COc1cc(C)c(S(=O)(=O)N2CCn3cccc3C2COCC(=O)N2CCC(c3ccncc3)CC2)c(C)c1 (stereo not shown) [Example 34, 2-[[2-[(4-Methoxy-2,6-dimethyl-phenyl)sulfonyl]-1,2,3,4-tetrahydro-pyrrolo[1,2-a]pyrazin-1-yl]-methoxy]-1-(4-pyridin-4-yl-piperidin-1-yl)-ethanone] | 103% | 99.2%
CN(C)Cc1ccc2c(c1)CCC(NC(=O)CC1c3cccn3CCN1S(=O)(=O)c1cccc(C(F)(F)F)c1)C2 (stereo not shown) [Example 92, N-[6-(Dimethylaminomethyl)-1,2,3,4-tetrahydro-naphthalen-2-yl]-2-[2-[[3-(trifluoromethyl)phenyl]sulfonyl]-1,2,3,4-tetrahydro-pyrrolo[1,2-a]pyrazin-1-yl]-acetamide] | 102% | 99.9%
Cc1ccc(S(=O)(=O)N2CCn3cccc3C2CC(=O)NC2CCc3cc(CN(C)C)ccc3C2)cc1 (stereo not shown) [Example 58, N-[6-(Dimethylaminomethyl)-1,2,3,4-tetrahydro-naphthalen-2-yl]-2-[2-(p-tolylsulfonyl)-1,2,3,4-tetrahydro-pyrrolo[1,2-a]pyrazin-1-yl]-acetamide] | 103% | 100%
COc1ccc2cc(S(=O)(=O)N3CCn4cccc4C3CC(=O)NC3CCc4cc(CN5CCCC5)ccc4C3)ccc2c1 (stereo not shown) [Example 94, 2-[2-[(6-Methoxy-naphthalen-2-yl)sulfonyl]-1,2,3,4-tetrahydro-pyrrolo[1,2-a]pyrazin-1-yl]-N-[6-(pyrrolidin-1-yl-methyl)-1,2,3,4-tetrahydro-naphthalen-2-yl]-acetamide] | 101% | 99.9%
COc1cc(C)c(S(=O)(=O)N2CCn3cccc3C2COCC(=O)N2CCN(C3CCN(C)CC3)CC2)c(C)c1 (stereo not shown) [Example 2, 2-((2-(4-Methoxy-2,6-dimethylphenylsulfonyl)-1,2,3,4-tetrahydropyrrolo[1,2-a]pyrazin-1-yl)methoxy)-1-(4-(1-methylpiperidin-4-yl)piperazin-1-yl)ethanone] | 98.9% | 99.9%
Cc1cccc(Cl)c1S(=O)(=O)N1CCn2cccc2C1COCC(=O)N(C)CCC1CCN(c2ccncc2)CC1 (stereo not shown) [Example 16, 2-((2-(2-Chloro-6-methylphenylsulfonyl)-1,2,3,4-tetrahydropyrrolo[1,2-a]pyrazin-1-yl)methoxy)-N-methyl-N-(2-(1-(pyridin-4-yl)piperidin-4-yl)ethyl)acetamide] | 98.5% | 99.9%

More lines, now with the values ahead:

inhibition at 10 µM (B1R of the rat) | inhibition at 10 µM (human B1R) | SMILES
103% | 99.8% | CNCc1ccc2c(c1)CCC(NC(=O)CC1c3cccn3CCN1S(=O)(=O)c1ccc(C)c(Cl)c1)C2 (stereo not shown) [Example 138, 2-[2-[(3-Chloro-4-methyl-phenyl)sulfonyl]-1,2,3,4-tetrahydro-pyrrolo[1,2-a]pyrazin-1-yl]-N-[6-(methylamino-methyl)-1,2,3,4-tetrahydro-naphthalen-2-yl]-acetamide]
101% | 99.6% | Cc1ccc(S(=O)(=O)N2CCn3cccc3C2CC(=O)NC2CCc3cc(CNC(C)(C)C)ccc3C2)cc1 (stereo not shown) [Example 122, N-[6-[(tert-Butylamino)-methyl]-1,2,3,4-tetrahydro-naphthalen-2-yl]-2-[2-(p-tolylsulfonyl)-1,2,3,4-tetrahydro-pyrrolo[1,2-a]pyrazin-1-yl]-acetamide]
102% | 99.8% | O=C(CC1c2cccn2CCN1S(=O)(=O)c1cccc(C(F)(F)F)c1)NC1CCCc2cc(CNCc3ccccc3)ccc21 (stereo not shown) [Example 112, N-[6-[(Benzylamino)-methyl]-1,2,3,4-tetrahydro-naphthalen-1-yl]-2-[2-[[3-(trifluoromethyl)phenyl]sulfonyl]-1,2,3,4-tetrahydro-pyrrolo[1,2-a]pyrazin-1-yl]-acetamide]
101% | 99.9% | Cc1ccc(S(=O)(=O)N2CCn3cccc3C2CC(=O)NC2CCCc3cc(CN(C)C)ccc32)cc1Cl (stereo not shown) [Example 102, 2-[2-[(3-Chloro-4-methyl-phenyl)sulfonyl]-1,2,3,4-tetrahydro-pyrrolo[1,2-a]pyrazin-1-yl]-N-[6-(dimethylaminomethyl)-1,2,3,4-tetrahydro-naphthalen-1-yl]-acetamide]
